How the values were obtained:
Experiment in all cases: Off-chip Mobility Shift Assay (MSA) kinase inhibition
Type in all cases: biochemical
CSK = target: T1, CSK (Homo sapiens, UniProt P41240)
T1 construct: purchased Carna Biosciences
Method: (§1) Off-chip Mobility Shift Assay (MSA) by Cama Biosciences, Inc (Natick, Mass.) a used for measuring the kinase activity and inhibition. • 1) The 5 μL of x4 compound solution, 5 μL of x4 Substrate/ATP/Metal solution, and 10 μL of x2 kinase solution were prepared with assay buffer (20 mM HEPES, 0.01% Triton X100, 2 mM DTT, pH 7.5) and mixed and incubated in a well of polypropylene 384 well microplate for 1 or 5 hour(s)* at room temperature. (*; depending on kinase) • 2) 70 μL of Termination Buffer (QuickScout Screening Assist A; Cama Biosciences) was added to the welt • 3) The reaction mixture was applied to LabChip system (Perkin Elmer), and the product and substrate peptide peaks were separated and quantitated. • 4) The kinase reaction was evaluated by the product ratio calculated from peak heights of product (P) and substrate (S) peptides (P/(P+S)). • 5) The reaction conditions were followed according to assay protocols of Ca n Biosciences, Inc (BMA 3F, 1-5-5 Minatojima-Minamimachi, Chuo-ku, Kobe 650-0047, Japan; www.carnabio.com). • 6 Data analysis: The readout value of reaction control (complete reaction mixture) was set as a 0% inhibition, and the readout value of background (Enzyme (−)) was set as a 100% inhibition, then the percent inhibition of each test solution was calculated, […]

DDR1 = target: T2, DDR1 (Homo sapiens, UniProt Q08345)
T2 construct: purchased Carna Biosciences
T2 sequence (Q08345 19-913): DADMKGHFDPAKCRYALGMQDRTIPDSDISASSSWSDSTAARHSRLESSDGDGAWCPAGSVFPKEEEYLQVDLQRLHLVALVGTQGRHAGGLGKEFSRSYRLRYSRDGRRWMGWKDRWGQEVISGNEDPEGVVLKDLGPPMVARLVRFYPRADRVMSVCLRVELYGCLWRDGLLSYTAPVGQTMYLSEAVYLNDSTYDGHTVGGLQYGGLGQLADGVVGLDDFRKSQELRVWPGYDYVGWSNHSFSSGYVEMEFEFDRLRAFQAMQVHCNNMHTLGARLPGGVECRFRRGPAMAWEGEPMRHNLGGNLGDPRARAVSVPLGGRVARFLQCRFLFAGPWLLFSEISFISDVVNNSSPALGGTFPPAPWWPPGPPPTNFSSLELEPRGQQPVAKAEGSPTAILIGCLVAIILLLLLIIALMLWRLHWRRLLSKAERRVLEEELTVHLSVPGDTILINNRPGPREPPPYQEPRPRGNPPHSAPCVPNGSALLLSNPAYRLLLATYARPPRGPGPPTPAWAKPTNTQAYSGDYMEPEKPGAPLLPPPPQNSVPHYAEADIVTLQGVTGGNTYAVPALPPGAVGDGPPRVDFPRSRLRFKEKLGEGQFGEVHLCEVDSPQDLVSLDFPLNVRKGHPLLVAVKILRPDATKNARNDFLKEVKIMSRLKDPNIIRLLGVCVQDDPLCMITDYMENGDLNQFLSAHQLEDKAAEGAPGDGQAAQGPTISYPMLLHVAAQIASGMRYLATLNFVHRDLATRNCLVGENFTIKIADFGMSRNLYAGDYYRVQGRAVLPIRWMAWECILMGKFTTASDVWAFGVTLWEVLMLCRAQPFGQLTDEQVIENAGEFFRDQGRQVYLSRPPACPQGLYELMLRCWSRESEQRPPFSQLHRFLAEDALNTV
Method: as §1

KIT(V654A) = target: T3, KIT(V654A) (Homo sapiens, UniProt P10721, V654A); details: inhibitor concentration 1 μM
T3 construct: purchased Carna Biosciences
Method: as §1

PDGFRα(D842V) = target: T4, PDGFRα(D842V) (Homo sapiens, UniProt P16234, D842V)
T4 construct: purchased Carna Biosciences
T4 sequence (P16234 24-1089 D842V): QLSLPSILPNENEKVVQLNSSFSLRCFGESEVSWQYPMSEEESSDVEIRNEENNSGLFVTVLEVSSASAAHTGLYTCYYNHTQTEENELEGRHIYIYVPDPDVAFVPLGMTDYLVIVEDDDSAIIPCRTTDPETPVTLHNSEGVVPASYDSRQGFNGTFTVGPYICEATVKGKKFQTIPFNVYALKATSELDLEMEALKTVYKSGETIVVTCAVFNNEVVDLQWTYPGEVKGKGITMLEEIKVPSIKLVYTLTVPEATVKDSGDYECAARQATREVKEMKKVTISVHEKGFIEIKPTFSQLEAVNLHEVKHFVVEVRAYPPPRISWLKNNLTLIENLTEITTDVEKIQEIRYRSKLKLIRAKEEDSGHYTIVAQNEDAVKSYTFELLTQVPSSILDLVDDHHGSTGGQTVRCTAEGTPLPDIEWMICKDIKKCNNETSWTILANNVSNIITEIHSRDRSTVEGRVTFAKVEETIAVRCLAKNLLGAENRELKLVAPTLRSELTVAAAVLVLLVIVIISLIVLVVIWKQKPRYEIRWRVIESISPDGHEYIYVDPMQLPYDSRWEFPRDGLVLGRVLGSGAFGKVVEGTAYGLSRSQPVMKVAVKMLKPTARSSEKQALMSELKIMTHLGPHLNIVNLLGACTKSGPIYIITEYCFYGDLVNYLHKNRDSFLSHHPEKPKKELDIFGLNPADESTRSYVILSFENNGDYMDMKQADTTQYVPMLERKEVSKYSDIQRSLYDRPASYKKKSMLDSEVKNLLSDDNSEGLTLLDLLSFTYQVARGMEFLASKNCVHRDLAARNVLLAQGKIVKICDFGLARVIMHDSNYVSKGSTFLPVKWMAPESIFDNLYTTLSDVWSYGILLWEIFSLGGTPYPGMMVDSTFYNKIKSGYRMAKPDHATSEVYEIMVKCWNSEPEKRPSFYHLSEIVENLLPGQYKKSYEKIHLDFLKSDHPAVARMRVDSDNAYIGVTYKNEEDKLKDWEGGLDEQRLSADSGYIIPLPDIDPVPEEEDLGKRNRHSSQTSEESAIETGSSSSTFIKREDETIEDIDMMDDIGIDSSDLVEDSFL
Method: as §1

PDGFRα(T674I) = target: T5, PDGFRα(T674I) (Homo sapiens, UniProt P16234, T674I)
T5 construct: purchased Carna Biosciences
T5 sequence (P16234 24-1089 T674I): as the sequence (P16234 24-1089 D842V) above, with T651I, V819D counted along it
Method: as §1

PDGFRα(V561D) = target: T6, PDGFRα(V561D) (Homo sapiens, UniProt P16234, V561D)
T6 construct: purchased Carna Biosciences
T6 sequence (P16234 24-1089 V561D): as the sequence (P16234 24-1089 D842V) above, with V538D, V819D counted along it
Method: as §1

PKD2 = target: T7, PKD2 (Homo sapiens, UniProt Q9BZL6); details: inhibitor concentration 1 μM
T7 construct: purchased Carna Biosciences
Method: as §1

PKD3 = target: T8, PKD3 (Homo sapiens, UniProt O94806); details: inhibitor concentration 1 μM
T8 construct: purchased Carna Biosciences
Method: as §1

RET(M918T) = target: T9, RET(M918T) (Homo sapiens, UniProt P07949, M918T)
T9 construct: purchased Carna Biosciences
T9 sequence (P07949 29-1114 M918T): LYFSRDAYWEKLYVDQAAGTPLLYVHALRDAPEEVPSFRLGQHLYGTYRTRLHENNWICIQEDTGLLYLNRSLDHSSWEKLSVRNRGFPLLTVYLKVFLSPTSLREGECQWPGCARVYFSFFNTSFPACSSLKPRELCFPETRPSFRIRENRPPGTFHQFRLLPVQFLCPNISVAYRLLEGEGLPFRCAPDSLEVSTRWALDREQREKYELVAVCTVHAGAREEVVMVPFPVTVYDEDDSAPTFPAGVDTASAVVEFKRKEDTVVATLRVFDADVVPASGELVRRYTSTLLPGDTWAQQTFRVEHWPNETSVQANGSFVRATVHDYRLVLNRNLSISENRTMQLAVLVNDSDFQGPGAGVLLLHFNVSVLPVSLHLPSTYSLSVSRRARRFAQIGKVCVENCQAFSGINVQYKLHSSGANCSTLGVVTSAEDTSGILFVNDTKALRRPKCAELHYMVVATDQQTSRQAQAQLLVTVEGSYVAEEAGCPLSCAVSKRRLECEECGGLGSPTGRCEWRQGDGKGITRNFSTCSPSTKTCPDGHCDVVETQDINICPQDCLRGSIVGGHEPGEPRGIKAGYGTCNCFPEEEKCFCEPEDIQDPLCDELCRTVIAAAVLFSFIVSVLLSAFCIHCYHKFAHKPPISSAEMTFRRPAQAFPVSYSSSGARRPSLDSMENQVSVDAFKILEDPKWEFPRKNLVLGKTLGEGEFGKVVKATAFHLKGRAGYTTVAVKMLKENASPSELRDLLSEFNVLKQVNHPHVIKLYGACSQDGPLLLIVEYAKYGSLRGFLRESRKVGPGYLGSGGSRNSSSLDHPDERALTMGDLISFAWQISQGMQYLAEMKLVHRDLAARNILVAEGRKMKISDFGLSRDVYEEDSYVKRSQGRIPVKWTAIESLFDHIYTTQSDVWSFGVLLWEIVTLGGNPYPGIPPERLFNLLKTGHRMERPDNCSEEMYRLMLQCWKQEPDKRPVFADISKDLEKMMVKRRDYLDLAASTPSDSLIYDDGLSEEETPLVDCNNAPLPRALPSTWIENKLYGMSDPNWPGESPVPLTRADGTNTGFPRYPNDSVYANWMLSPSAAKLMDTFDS
Method: as §1

RET(S891A) = target: T10, RET(S891A) (Homo sapiens, UniProt P07949, S891A)
T10 construct: purchased Carna Biosciences
T10 sequence (P07949 29-1114 S891A): as the sequence (P07949 29-1114 M918T) above, with S863A, T890M counted along it
Method: as §1

BRAF(V600E) = target: T11, BRAF(V600E) (Homo sapiens, UniProt P15056, V600E)
T11 construct: purchased Carna Biosciences
Summary of the method: (§2)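 Inhibition was determined by mobility shift detection after kinase, compound and substrate/ATP/metal were incubated together at room temperature for 1 or 5 hour(s), in pH 7.5 buffer of 20 mM HEPES with 0.01% Triton X100 and 2 mM DTT.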

Erk1 = target: T12, Erk1 (Homo sapiens, UniProt P27361); details: for inhibition at 0.1 µM: inhibitor concentration 0.1 μM
T12 construct: purchased Carna Biosciences
T12 sequence (P27361 whole entry): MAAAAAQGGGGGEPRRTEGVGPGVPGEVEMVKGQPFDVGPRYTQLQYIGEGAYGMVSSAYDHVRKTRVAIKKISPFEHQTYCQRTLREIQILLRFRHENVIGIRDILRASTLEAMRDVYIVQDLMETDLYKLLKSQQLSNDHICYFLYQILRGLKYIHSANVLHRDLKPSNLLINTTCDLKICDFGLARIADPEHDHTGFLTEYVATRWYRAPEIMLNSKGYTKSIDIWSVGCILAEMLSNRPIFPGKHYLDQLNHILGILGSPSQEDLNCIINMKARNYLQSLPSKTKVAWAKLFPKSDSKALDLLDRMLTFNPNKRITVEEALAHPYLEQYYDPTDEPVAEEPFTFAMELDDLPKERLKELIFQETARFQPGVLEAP
Summary of the method: as §2

HER2 = target: T13, HER2 (Homo sapiens, UniProt P04626); details: for inhibition at 0.1 µM: inhibitor concentration 0.1 μM
T13 construct: purchased Carna Biosciences
Summary of the method: as §2

ABL(T315I) = target: T14, ABL(T315I) (Homo sapiens, UniProt P00519, T315I); details: inhibitor concentration 0.1 μM
T14 construct: purchased Carna Biosciences
Summary of the method: as §2

AKT1 = target: T15, AKT1 (Homo sapiens, UniProt P31749); details: inhibitor concentration 0.1 μM
T15 construct: purchased Carna Biosciences
T15 sequence (P31749 whole entry): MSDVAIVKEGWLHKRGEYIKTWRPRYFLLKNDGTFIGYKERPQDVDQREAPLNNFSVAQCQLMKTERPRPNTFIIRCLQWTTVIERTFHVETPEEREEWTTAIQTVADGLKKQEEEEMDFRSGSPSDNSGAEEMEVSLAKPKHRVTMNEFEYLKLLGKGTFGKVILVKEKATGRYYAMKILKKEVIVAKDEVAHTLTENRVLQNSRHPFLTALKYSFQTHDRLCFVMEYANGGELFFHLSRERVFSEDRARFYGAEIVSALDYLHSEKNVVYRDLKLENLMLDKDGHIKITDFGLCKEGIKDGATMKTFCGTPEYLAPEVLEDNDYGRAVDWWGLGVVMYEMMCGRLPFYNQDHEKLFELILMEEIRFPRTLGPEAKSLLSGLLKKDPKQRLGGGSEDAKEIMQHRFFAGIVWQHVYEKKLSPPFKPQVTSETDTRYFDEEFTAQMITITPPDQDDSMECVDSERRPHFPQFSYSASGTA
Summary of the method: as §2

AXL = target: T16, AXL (Homo sapiens, UniProt P30530); details: inhibitor concentration 0.1 μM
T16 construct: purchased Carna Biosciences
T16 sequence (P30530 26-894): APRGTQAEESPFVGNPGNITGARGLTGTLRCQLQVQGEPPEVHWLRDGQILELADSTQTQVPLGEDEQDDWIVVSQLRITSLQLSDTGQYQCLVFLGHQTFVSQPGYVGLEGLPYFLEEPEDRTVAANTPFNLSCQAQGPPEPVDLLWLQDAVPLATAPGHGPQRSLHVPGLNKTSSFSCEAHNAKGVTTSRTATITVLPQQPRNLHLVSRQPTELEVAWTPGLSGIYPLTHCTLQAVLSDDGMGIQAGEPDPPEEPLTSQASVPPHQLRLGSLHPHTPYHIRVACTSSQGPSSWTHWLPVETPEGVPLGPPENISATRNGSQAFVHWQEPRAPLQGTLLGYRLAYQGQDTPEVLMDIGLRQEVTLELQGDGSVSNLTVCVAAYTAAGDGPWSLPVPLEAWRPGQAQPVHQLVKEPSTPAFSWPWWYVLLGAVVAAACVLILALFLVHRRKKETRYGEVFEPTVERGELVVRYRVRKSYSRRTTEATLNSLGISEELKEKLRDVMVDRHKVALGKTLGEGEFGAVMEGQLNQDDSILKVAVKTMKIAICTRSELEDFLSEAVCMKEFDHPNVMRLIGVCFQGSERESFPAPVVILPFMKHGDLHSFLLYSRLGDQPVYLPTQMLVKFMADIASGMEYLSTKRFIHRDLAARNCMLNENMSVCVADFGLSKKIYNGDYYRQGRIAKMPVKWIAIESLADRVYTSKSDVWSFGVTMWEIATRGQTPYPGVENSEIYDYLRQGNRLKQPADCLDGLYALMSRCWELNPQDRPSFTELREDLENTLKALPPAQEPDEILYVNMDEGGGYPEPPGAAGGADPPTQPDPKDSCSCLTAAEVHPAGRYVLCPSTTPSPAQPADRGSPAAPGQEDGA
Summary of the method: as §2

PIM1 = target: T17, PIM1 (Homo sapiens, UniProt P11309); details: inhibitor concentration 0.1 μM
T17 construct: purchased Carna Biosciences
T17 sequence (P11309 whole entry): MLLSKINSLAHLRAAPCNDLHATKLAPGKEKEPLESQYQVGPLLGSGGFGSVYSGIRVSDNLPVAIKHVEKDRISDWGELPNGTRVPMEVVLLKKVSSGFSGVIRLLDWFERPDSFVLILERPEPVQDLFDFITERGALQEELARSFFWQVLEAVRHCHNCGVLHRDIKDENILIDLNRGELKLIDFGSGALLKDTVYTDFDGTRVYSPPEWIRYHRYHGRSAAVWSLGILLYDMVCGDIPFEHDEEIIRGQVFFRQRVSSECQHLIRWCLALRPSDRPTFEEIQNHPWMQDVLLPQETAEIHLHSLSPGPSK
Summary of the method: as §2

[1] = inhibitor concentration 0.01 μM
[2] = inhibitor concentration 0.01 μM, 0.01 µM

T1 sequence (P41240 whole entry): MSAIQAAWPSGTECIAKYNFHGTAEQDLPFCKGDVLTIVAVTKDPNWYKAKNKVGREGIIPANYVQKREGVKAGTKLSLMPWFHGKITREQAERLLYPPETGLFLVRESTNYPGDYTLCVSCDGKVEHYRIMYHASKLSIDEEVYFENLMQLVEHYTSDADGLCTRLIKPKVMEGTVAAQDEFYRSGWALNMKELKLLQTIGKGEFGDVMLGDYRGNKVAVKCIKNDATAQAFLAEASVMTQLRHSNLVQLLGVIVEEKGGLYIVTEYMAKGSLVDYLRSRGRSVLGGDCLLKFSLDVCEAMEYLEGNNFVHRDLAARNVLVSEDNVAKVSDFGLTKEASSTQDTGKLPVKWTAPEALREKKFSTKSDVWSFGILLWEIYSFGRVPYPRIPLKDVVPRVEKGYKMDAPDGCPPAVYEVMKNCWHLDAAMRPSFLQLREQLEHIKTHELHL

With `O=C(c1c(F)ccc(NS(=O)(=O)CCCO)c1F)c1c[nH]c2ncc(-c3ccc(Cl)cc3)cc12` [200-17, N-[3-[5-(4-chlorophenyl)-1H-pyrrolo[2,3-b]pyridine-3-carbonyl]-2,4-difluorophenyl]-3-hydroxypropane-1-sulfonamide] the inhibition at 0.01 µM (CSK; [1]) was < 30%, the inhibition at 0.1 µM (CSK; inhibitor concentration 0.1 μM) was > 50% and the inhibition at 1 µM (CSK; inhibitor concentration 1 μM) was > 50%. The inhibition at 0.01 µM (DDR1; [1]) was < 30%, the inhibition at 0.1 µM (DDR1; inhibitor concentration 0.1 μM) was > 50% and the inhibition at 1 µM (DDR1; inhibitor concentration 1 μM) was > 50%. For the same molecule, the inhibition at 1 µM (KIT(V654A)) was > 50%, the inhibition at 1 µM (PDGFRα(D842V); inhibitor concentration 1 μM) was > 50% and the inhibition at 1 µM (PDGFRα(T674I); inhibitor concentration 1 μM) was < 50%. For the same molecule, the inhibition at 0.01 µM (PDGFRα(V561D); [1]) was < 30%, the inhibition at 0.1 µM (PDGFRα(V561D); inhibitor concentration 0.1 μM) was > 50% and the inhibition at 1 µM (PDGFRα(V561D); inhibitor concentration 1 μM) was > 50%. The inhibition at 1 µM (PKD2) was < 50%, the inhibition at 1 µM (PKD3) was < 50% and the inhibition at 0.01 µM (RET(M918T); [1]) was < 30%. The inhibition at 0.1 µM (RET(M918T); inhibitor concentration 0.1 μM) was < 50%, the inhibition at 1 µM (RET(M918T); inhibitor concentration 1 μM) was > 50% and the inhibition at 0.01 µM (RET(S891A); [1]) was < 30%. For the same molecule, the inhibition at 0.1 µM (RET(S891A); inhibitor concentration 0.1 μM) was > 50%, the inhibition at 1 µM (RET(S891A); inhibitor concentration 1 μM) was > 50% and the inhibition at 1 µM (BRAF(V600E); inhibitor concentration 1 μM) was > 50%. The inhibition at 1 µM (Erk1; inhibitor concentration 1 μM) was < 50% and the inhibition at 1 µM (HER2; inhibitor concentration 1 μM) was < 50%.

In the case of `O=C(c1c(F)ccc(NS(=O)(=O)CC(O)CO)c1F)c1c[nH]c2ncc(-c3ccc(Cl)cc3)cc12` (stereo not drawn) [200-73, N-[3-[5-(4-chlorophenyl)-lH-pyrrolo [2,3-b]pyridine-3-carbonyl]-2,4-difluorophenyl]-2,3-dihydroxypropane-l-sulfonamide], the inhibition at 0.1 µM (ABL(T315I)) is reported as < 30%, the inhibition at 0.1 µM (AKT1) is reported as < 30% and the inhibition at 0.1 µM (AXL) is reported as < 30%. For the same molecule, the inhibition at 0.1 µM (BRAF(V600E); inhibitor concentration 0.1 μM) was < 30%, the inhibition at 0.1 µM (Erk1) was < 30% and the inhibition at 0.1 µM (HER2) was < 30%. The inhibition at 0.1 µM (PIM1) was < 30%.

In the case of `C/C=C/S(=O)(=O)Nc1ccc(F)c(C(=O)c2c[nH]c3ncc(-c4ccc(Cl)cc4)cc23)c1F` [200-93b], the “PDGFRα(D842V) inhibition” value (PDGFRα(D842V); [2]) is reported as <20%, the “PDGFRα(T674I) inhibition” value (PDGFRα(T674I); [2]) is reported as <20% and the “PDGFRα(V561D) inhibition” value (PDGFRα(V561D); [2]) is reported as <20%. For the same molecule, the “BRAF(V600E) inhibition” value (BRAF(V600E); [2]) was <20%.

`CC(O)CS(=O)(=O)Nc1ccc(F)c(C(=O)c2c[nH]c3ncc(-c4ccc(Cl)cc4)cc23)c1F` (stereo not shown) [200-115] was tested, and the inhibition at 0.1 µM (ABL(T315I)) was < 30%, the inhibition at 0.1 µM (AKT1) was < 30% and the inhibition at 0.1 µM (AXL) was < 30%. For the same molecule, the inhibition at 0.1 µM (Erk1) was < 30%, the inhibition at 0.1 µM (HER2) was < 30% and the inhibition at 0.1 µM (PIM1) was < 30%.

With `CC(=O)CS(=O)(=O)Nc1ccc(F)c(C(=O)c2c[nH]c3ncc(-c4ccc(Cl)cc4)cc23)c1F` [200-117] the inhibition at 0.1 µM (ABL(T315I)) was < 30%, the inhibition at 0.1 µM (AKT1) was < 30% and the inhibition at 0.1 µM (AXL) was < 30%. For the same molecule, the inhibition at 0.1 µM (Erk1) was < 30%, the inhibition at 0.1 µM (HER2) was < 30% and the inhibition at 0.1 µM (PIM1) was < 30%.
